Source: patent US20240082416A1, “AMATOXIN ANALOGS AND USES THEREOF” (THE UNIVERSITY OF BRITISH COLUMBIA, priority 2020, published 2024)
Values joined by “and” are separate entries in the source; they are usually repeats but may differ in a detail not shown here. Equal values may be shown once. Starred links: 1 amine or outer side, 2 acyl side, 3 side chain; linkers in the order of their positions; H or OH if unused. Positions of bridges follow the written chain, without caps; N, C: chain ends. Non-standard residues stand in square brackets, D forms with d. Residues, ends and D or L forms follow the SMILES beside them. X4 = CC(C)(C)OC(=O)/N=C(\N)N[C@@H]1C[C@@H](C(=O)[*:2])N([*:1])C1; Trp(2-yl) = O=C([C@H](Cc1c([*:3])[nH]c2ccccc12)N[*:1])[*:2]; X2 = [N-]=[N+]=N[C@@H]1C[C@@H](C(=O)[*:2])N([*:1])C1; Ile(4R-OH,5-OH) = C[C@H]([C@H](N)C(=O)O)[C@@H](O)CO; X3 = CC(=O)NCS[C@@H]1C[C@@H](C(=O)[*:2])N([*:1])C1

Columns and labels:
[1] = tested on: CHO cells; assay: Viability assay against CHO cells (MTT colorimetric assay); assay type: cell-based, Chinese hamster; conditions: 72 h, replicates n = 1, 2, 3
Experimental: (§1) (f) Cell culture: Cells were cultured in Minimum Essential Medium Eagle—Alpha Modification (α-MEM) or […] Dulbecco's Modified Eagle Medium (DMEM), purchased from Gibco. […] All cell culture plastic ware was obtained from Coming or Falcon. Cells were cultured at 37° C. in a humidified chamber with 5% CO2. When used in cell culture, DMSO was purified by filtration through a […] filter. All experiments were carried out in a laminar flow culture cabinet, unless otherwise noted.
(§2) Immortalized CHO cells had been stored in liquid nitrogen. To revive cells, a 1-mL tube of the frozen cells in medium containing 10% DMSO was warmed in a 30° C. water bath and diluted with 9 mL of fresh media. Media contained 10% FBS and 100 U/mL penicillin and […] streptomycin, unless otherwise indicated. The cells were incubated in a T-25 flask at 37° C. at 5% CO2. After 24 hours, the medium was aspirated and replaced with fresh medium. When cells reached a level of 90-100% confluence, they were sub-cultured. […] Once the cells were detached from the tissue culture flask, 3-5 mL media was added to quench the trypsin and the mixture was transferred to a 10 mL centrifuge tube. The mixture was centrifuged for 5 min at […], and the supernatant was discarded. The cells were suspended in fresh medium, diluted as required, and transferred to a new culture flask.
(§3) To assay cell viability, a nearly confluent tissue culture flask was trypsinized, and the cells were counted following treatment with Trypan blue, using a hemocytometer. The cells were then diluted to the appropriate stock concentrations in fresh medium and transferred in 100 μL to a 96-well plate using a multi-channel pipette. The number of cells plated varied from experiment to experiment. These were incubated at 37° C. and 5% CO2 for a 24-hour period to allow for adherence. The medium was aspirated, and fresh medium was added, which contained the desired additives in DMSO. The cells were then re-incubated for 72 h. At the completion of the experiment, a 100 μL aliquot of 25 mg/mL MTT in phosphate-buffered saline (PBS) was added to each well. The plate was incubated three hours further to allow for the formation of the formazan product in viable cells. The media was carefully aspirated, and the purple product was solubilized in DMSO. […] Data was processed in Microsoft Excel and GraphPad Prism. Experiments were performed in triplicates unless otherwise noted, and the error bars were calculated as the standard error of the mean.
(§4) Each cell line was plated in a 96-well plate, with 100 μL of the stock solution per well (5000 cells per well) and incubated for 24 hours. […] The cells were incubated for 72 hours, at which point viability was assessed as described.

[2] = target: T1, Pol II (Homo sapiens, UniProt P24928); assay: In vitro transcription runoff assay using HeLaScribe nuclear extract; assay type: biochemical; conditions: for IC50: IC50 (nM), Table 12, n = 3, high values estimated from activity at [I]=1.0 μM; for inhibitory effects: up to 1 μM concentrations
T1 construct: HeLaScribe® nuclear extract containing Pol II and all other transcription factors; purchased Promega; host or cells: HeLa nuclear extract (endogenous protein)
Description: (h) In vitro transcription assay of synthetic amanitins containing analogs of Hyp: Primers were purchased from IDT via standard phosphoramidite chemistry. dNTP and rNTP were purchased from Thermofisher. GoTaq polymerase and HeLaScribe*Nuclear Extract in vitro Transcription System was purchased from Promega. Taq polymerase was purchased from NEB. [^32P] α-dGTP (3000 Ci/mmol 10 mCi/ml EasyTide) and [^32P] α-GTP (3000 Ci/mmol 10 mCi/ml EasyTide) were purchased from Perkin Elmer. QIAquick PCR purifcation kit was purchased from Qiagen. AcGFP1-N1 was a gift (Addgene plasmid #54705; http://n2t.net/addgene:54705; RRID:Addgene_54705). DNA Primer sequences were:
The DNA template for transcription runoff was synthesized by PCR with template pAcGFP-N1, and primers P1 and P2. To a final volume of 20 μL, 1 x GoTaq Buffer, 250 μM of each dNTP, 500 nM of each primers P1 and P2, […] pAcGFP-N1 and 0.05 U/μL GoTaq were employed to thermocycle for 30 cycles (30 s at 95° C., 30 s at 50° C. and 60 s at 72° C., Bio-Rad). A 1 μL aliquot of the amplified solution was resolved with 6×DNA loading dye in a 1% agarose gel containing […] and then visualized using GelDoc XR imager (Bio-Rad). Purification was completed via QIAquick PCR purification kit (Qiagen). The radioactive chromatographic standard was synthesized by PCR with template pAcGFP-N1, and primers P3 and P4. To a final volume of 50 μL, 1 x Thermopol Buffer, 200 μM of each dNTP, 500 nM of each primers P3 and P4, 10 pg/μL pAcGFP-N1 and 0.02 U/μL Vent polymerase, 1 μL [^32P] α-dGTP were employed to thermocycle for 30 cycles (30 s at 95° C., 30 s at 62° C. and 30 s at 72° C., Bio-Rad). A 1 μL aliquot of the amplified solution was resolved with 6×DNA loading dye in 8% denaturing PAGE and then visualized by autoradiography via the Typhoon 9200 imager (Molecular namics-Amersham-GE). Purification was completed via QIAquick PCR purification kit (Qiagen). The transcription runoff assay was modified from HeLaScribe® Nuclear Extract in vitro Transcription System (Promega). […]. The pellet was resolved by 8% denaturing PAGE and then visualized by autoradiography via the Typhoon 9200 imager (Molecular dynamics-Amersham-GE). Dosimetry was calculated by ImageJ, and the 3 parameter logistic fit was completed by Origin 2019 (OriginLab). […]
All data were presented in mean±standard deviation (n=3).

[3] = Viability assay against CHO cells (MTT colorimetric assay); assay type: cell-based, Chinese hamster; conditions: Chinese hamster, CHO cells, 72 h, replicates n = 1, 2, 3, read-out: % viable cells; for viability at 72 h, 1.25e-06 M: 1.25e-006 M; for viability at 72 h, 1.56e-07 M: 1.56e-007 M; for viability at 72 h, 2.5e-06 M: 2.5e-006 M; for viability at 72 h, 5e-06 M: 5e-006 M; for viability at 72 h, 6.25e-07 M: 6.25e-007 M
Experimental: as §1, §2, §3, §4

[4] = Cell viability assay (BrdU incorporation) on HEK293-OATP1B3 cells; assay type: cell-based, human; conditions: human, HEK293 cells overexpressing OATP1B3 (HEK293-OATP1B3); highest used concentration of 1 μM; HEK293-OATP1B3 cells
Experimental: . HEK293 and HEK-OATP1B3 cells were plated at 2.5×10^3 cells/well in a 1:1 mixture of Ham's F12 with DMEM containing 10% charcoal-stripped fetal calf serum (FCS) onto poly-D-lysine-coated 96-well plates and grown for 24 hours. Subsequently, cells were incubated with amanitin analogs at 8 different concentrations (1×10^−6 M to 1.28×10^−11 M, serial 1:5 dilutions). Following 96 h of drug exposure, cell viability was determined by a BrdU incorporation assay (Cell Proliferation ELISA, BrdU, Roche) and chemiluminescence was measured using a FLUOstar Optima plate reader (BMG LABtech). Data analysis was performed with GraphPad Prism 8 (GraphPad Software, Inc., La Jolla, CA) software to plot curve fits.

With CC[C@H](C)[C@@H]1NC(=O)CNC(=O)[C@@H]2Cc3c([nH]c4ccccc34)SC[C@H](NC(=O)CNC1=O)C(=O)N[C@@H](CC(N)=O)C(=O)N1C[C@H](SCNC(C)=O)C[C@H]1C(=O)N[C@@H]([C@@H](C)[C@@H](O)CO)C(=O)N2 [Compound 8, SAcm-Pro-amanitin] (cyclo(CN[X3][Ile(4R-OH,5-OH)][Trp(2-yl)]GIG); thioether 1-5) the “% viable cells” value ([1]; 1e-005 M, listed as SAcm-Pro-amanitin (8)) was 90% and 99%, the “% viable cells” value ([1]; 1.25e-006 M, listed as SAcm-Pro-amanitin (8)) was 85% and 92% and 106% and the “% viable cells” value ([1]; 1.56e-007 M, listed as SAcm-Pro-amanitin (8)) was 94% and 93% and 113%. The “% viable cells” value ([1]; 2e-005 M, listed as SAcm-Pro-amanitin (8)) was 110% and 105% and 99%, the “% viable cells” value ([1]; 2.5e-006 M, listed as SAcm-Pro-amanitin (8)) was 87% and 92% and 105% and the “% viable cells” value ([1]; 3.125e-007 M, listed as SAcm-Pro-amanitin (8)) was 88% and 93% and 110%. The “% viable cells” value ([1]; 5e-006 M, listed as SAcm-Pro-amanitin (8)) was 86% and 89%, the “% viable cells” value ([1]; 6.25e-007 M, listed as SAcm-Pro-amanitin (8)) was 93% and 90% and 108% and the IC50 [2] was greater than 1000 nM.

CC[C@H](C)[C@@H]1NC(=O)CNC(=O)[C@@H]2Cc3c([nH]c4ccccc34)SC[C@H](NC(=O)CNC1=O)C(=O)N[C@@H](CC(N)=O)C(=O)N1C[C@H](N=[N+]=[N-])C[C@H]1C(=O)N[C@@H]([C@@H](C)[C@@H](O)CO)C(=O)N2 [Compound 3, N3-Pro-amanitin] (cyclo(CN[X2][Ile(4R-OH,5-OH)][Trp(2-yl)]GIG); thioether 1-5) gave a viability at 72 h, 1e-05 M ([3]; 1e-005 M) of 107%, a viability at 72 h, 1.25e-06 M [3] of 105% and a viability at 72 h, 1.56e-07 M [3] of 101%. The viability at 72 h, 2e-05 M ([3]; 2e-005 M) was 112%, the viability at 72 h, 2.5e-06 M [3] was 104% and the viability at 72 h, 3.125e-07 M ([3]; 3.125e-007 M) was 99%. The viability at 72 h, 5e-06 M [3] was 104%, the viability at 72 h, 6.25e-07 M [3] was 101% and the “% viable cells” value ([1]; 1e-005 M, listed as N3-Pro-amanitin (3)) was 100% and 94%. For the same molecule, the “% viable cells” value ([1]; 1.25e-006 M, listed as N3-Pro-amanitin (3)) was 88% and 89%, the “% viable cells” value ([1]; 1.56e-007 M, listed as N3-Pro-amanitin (3)) was 89% and 88% and the “% viable cells” value ([1]; 2.5e-006 M, listed as N3-Pro-amanitin (3)) was 95% and 88%. For the same molecule, the “% viable cells” value ([1]; 3.125e-007 M, listed as N3-Pro-amanitin (3)) was 89% and 91%, the “% viable cells” value ([1]; 5e-006 M, listed as N3-Pro-amanitin (3)) was 88% and 89% and the “% viable cells” value ([1]; 6.25e-007 M, listed as N3-Pro-amanitin (3)) was 93% and 87%. The viability at 96 h, 1 µM [4] was 68%, the IC50 [2] was greater than 1000 nM and the “inhibitory effects” value [2] was “did not exhibit any noticeable inhibitory effects”.

Molecule CC[C@H](C)[C@@H]1NC(=O)CNC(=O)[C@@H]2Cc3c([nH]c4ccccc34)SC[C@H](NC(=O)CNC1=O)C(=O)N[C@@H](CC(N)=O)C(=O)N1C[C@H](N/C(N)=N/C(=O)OC(C)(C)C)C[C@H]1C(=O)N[C@@H]([C@@H](C)[C@@H](O)CO)C(=O)N2 [Compound 9, Boc-Gdn-Pro-amanitin] (cyclo(CN[X4][Ile(4R-OH,5-OH)][Trp(2-yl)]GIG); thioether 1-5) has a viability at 72 h, 1.25e-06 M [3] of 84%, a viability at 72 h, 1.56e-07 M [3] of 87% and a viability at 72 h, 2.5e-06 M [3] of 86%. The viability at 72 h, 3.9e-08 M ([3]; 3.9e-008 M) was 88%, the viability at 72 h, 5e-06 M [3] was 86% and the viability at 72 h, 6.25e-07 M [3] was 84%. The viability at 72 h, 7.8e-08 M ([3]; 7.8e-008 M) was 85%, the “% viable cells” value ([1]; 1e-005 M, listed as Boc-Gdn-Pro-amanitin (9)) was 103% and 98% and 119% and the “% viable cells” value ([1]; 1.25e-006 M, listed as Boc-Gdn-Pro-amanitin (9)) was 89% and 100%. The “% viable cells” value ([1]; 1.56e-007 M, listed as Boc-Gdn-Pro-amanitin (9)) was 97%, the “% viable cells” value ([1]; 2.5e-006 M, listed as Boc-Gdn-Pro-amanitin (9)) was 100% and the “% viable cells” value ([1]; 3.125e-007 M, listed as Boc-Gdn-Pro-amanitin (9)) was 82% and 90% and 103%. For the same molecule, the “% viable cells” value ([1]; 3.9e-008 M, listed as Boc-Gdn-Pro-amanitin (9)) was 102%, the “% viable cells” value ([1]; 5e-006 M, listed as Boc-Gdn-Pro-amanitin (9)) was 104% and the “% viable cells” value ([1]; 6.25e-007 M, listed as Boc-Gdn-Pro-amanitin (9)) was 102%. The “% viable cells” value ([1]; 7.8e-008 M, listed as Boc-Gdn-Pro-amanitin (9)) was 101%, the IC50 [2] was greater than 600 nM and the “inhibitory effects” value [2] was “did not exhibit any noticeable inhibitory effects”.
